Assays:
[1] = target: bovine serum albumin (Bos taurus, UniProt P02769); experiment: In vitro anti-inflammatory activity by inhibition of bovine serum albumin denaturation; format: biochemical; conditions: for % Inhibition at 10 μg: inhibition of heat-induced albumin denaturation (60° C., 10 min), turbidity, average of triplicate; for inhibition rate: at 10 μg, bovine serum albumin denaturation method
Experimental: Accordingly, in an embodiment of the present subject matter, the dimethyl 7-bromo-1-(4- substituted benzoyl)pyrrolo[1,2-α]quinoline-2,3-dicarboxylates derivatives, or the dimethyl 7-bromo-1-(4-substituted benzoyl)pyrrolo[1,2-α]quinoline-2,3-dicarboxylates, as described herein were screened for their in vitro anti-inflammatory activity by inhibiting the bovine serum albumin denaturation method. The test compound is dissolved in a minimum amount of dimethyl sulphoxide (DMSO) and diluted with phosphate buffer. The final concentration of DMF in all solutions is less than 2.5%. Test solutions containing different concentrations of the drug is mixed with albumin solution in phosphate buffer and incubated at about 27-37° C.±10° C. for about at least 15 min. Denaturation is induced by keeping the reaction mixture at about 60° C.±10° C. in a water bath for at least about 10 min. After cooling, the turbidity is measured at about 210-660 nm (Shimadzu Spectrometer). Percentage inhibition of denaturation is calculated from a control where no drug was added. The percentage of inhibition is calculated from the following formula. The standard solution is also prepared as similar to that of the test solution. Ibuprofen can be used as a standard.
The newly synthesized compounds were screened for their in-vitro anti-inflammatory activity by inhibiting the bovine serum albumin denaturation method. The test compounds were dissolved in a minimum dimethyl sulphoxide (DMSO) and diluted with phosphate buffer (0.2M, pH 7.4). The final concentration of DMF in all solutions was less than 2.5%. Test solution (1 mL) containing different concentrations of the drug was mixed with 1 mL of 1 mm albumin solution in phosphate buffer and incubated at 27-37° C.±10° C. for 15 min. Denaturation was induced by keeping the reaction mixture at 60° C.±10° C. in a water bath for 10 min. After cooling, the turbidity was measured at 210-660 nm (Shimadzu Spectrometer). Percentage inhibition of denaturation was calculated from control where no drug was added. Each experiment was done in triplicate, and the average was taken. The percentage of inhibition is calculated from the following formula. The standard solution was also prepared as similar to that of the test solution. Ibuprofen was used as a standard.
The inhibition was calculated using the following equation: % Inhibition=100 (1−Vt/Vc) where, Vt=Drug absorbance of triplicate average Vc=Control absorbance of triplicate average

Chain of bovine serum albumin (P02769 25-607): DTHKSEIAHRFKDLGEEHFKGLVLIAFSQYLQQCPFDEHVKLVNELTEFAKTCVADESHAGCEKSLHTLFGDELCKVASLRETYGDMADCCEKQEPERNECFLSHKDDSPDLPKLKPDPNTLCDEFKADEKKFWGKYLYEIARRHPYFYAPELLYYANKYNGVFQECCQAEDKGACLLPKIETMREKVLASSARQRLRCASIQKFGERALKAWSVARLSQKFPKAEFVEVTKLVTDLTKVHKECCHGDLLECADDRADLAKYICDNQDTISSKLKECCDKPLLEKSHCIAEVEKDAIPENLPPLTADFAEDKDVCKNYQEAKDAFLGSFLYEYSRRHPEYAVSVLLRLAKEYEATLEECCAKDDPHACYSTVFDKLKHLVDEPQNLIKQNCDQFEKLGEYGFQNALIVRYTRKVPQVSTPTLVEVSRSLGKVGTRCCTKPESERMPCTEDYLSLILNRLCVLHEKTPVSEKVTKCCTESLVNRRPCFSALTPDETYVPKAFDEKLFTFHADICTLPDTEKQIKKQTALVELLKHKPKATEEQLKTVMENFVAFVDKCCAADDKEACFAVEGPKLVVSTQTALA

Row | SMILES | % Inhibition at 10 μg [1] [%] | inhibition rate [1] [%] | melting point [°C]
1 | COC(=O)c1c(C(=O)OC)c2ccc3cc(Br)ccc3n2c1C(=O)c1ccc(F)cc1 [Compound 3a, dimethyl 7-bromo-1-(4-fluorobenzoyl)pyrrolo[1,2-α]quinoline-2,3-dicarboxylate] | 49.75 | 49.75 | 169 to 171
2 | COC(=O)c1c(C(=O)OC)c2ccc3cc(Br)ccc3n2c1C(=O)c1ccc(Cl)cc1 [Compound 3b, dimethyl 7-bromo-1-(4-chlorobenzoyl)pyrrolo[1,2-α]quinoline-2,3-dicarboxylate] | 42.52 | 42.52 | 210 to 212
3 | COC(=O)c1c(C(=O)OC)c2ccc3cc(Br)ccc3n2c1C(=O)c1ccc(Br)cc1 [Compound 3c, dimethyl 7-bromo-1-(4-bromobenzoyl)pyrrolo[1,2-α]quinoline-2,3-dicarboxylate] | 54.35 | 54.35 | 170 to 172
